“Also recorded” adds a separate entry of the source.
Experiments:
in vivo Parkinson model = conditions: ref [24]; cited from earlier work
TDP1 [1] = target: T1, TDP1 (Homo sapiens, UniProt Q9NUW8); assay: Real-time detection of TDP1 activity with fluorescent oligonucleotide biosensor; type: biochemical; conditions: for IC50: real-time fluorescent oligonucleotide biosensor, 1.5 nM TDP1, 50 nM substrate, read-out: IC50, TDP1 inhibition
T1 construct: made in house; host or cells: Escherichia coli
Experimental: The compounds synthesized starting from (+)-3-carene 8 were tested for their TDP1 inhibitory properties by measuring their IC50 values using a real-time fluorescent oligonucleotide biosensor [38].
A fluorophore quencher-coupled oligonucleotide biosensor was used for TDP1 enzyme activity real-time fluorescence detection. […] Recombinant protein TDP1 was expressed in Escherichia coli (pET 16B plasmid containing TDP1 cDNA was provided by Dr. K.W. Caldecott, University of Sussex, United Kingdom) and isolated as described by Lebedeva et al.. The reaction mixture contained TDP1 reaction buffer (50 mM Tris-HCl, 50 mM NaCl, 7 mM β-mercaptoethanol), 50 nM oligonucleotide substrate, varied concentrations of the tested compounds, and 1.5 nM purified TDP1 in a final volume of 200 μL.
The TDP1 reaction mixture was incubated at rt in a POLARstar OPTIMA fluorimeter (BMG LABTECH, GmbH). Fluorescence intensity was measured every 1 min (Ex485/Em520 nm). The efficiency of TDP1 inhibition was evaluated by comparing the rate of increase in the fluorescence of the biosensor in the presence of the compound to that of DMSO (1.5%) control wells. IC50 values were determined using an 11-point concentration–response curve. The data were imported into MARS Data Analysis 2.0 program (BMG LABTECH) and the slope during the linear phase was calculated. The IC50 measurements were carried out in at least three independent experiments.

[2] = ref [24]; cited from earlier work
HEK293FT WT cells [3] = assay: Colorimetric cytotoxicity test (MTT/EZ4U), HEK293FT WT; type: cell-based, human; conditions: for effect of TDP1 inhibitor in conjunction with Tpc on cell growth: Tpc 200 nM; for IC50: Homo sapiens, HEK293FT, 72 h, read-out: Tpc IC50, colorimetric test
Experimental: (§1) We analyzed, using a colorimetric test, the relative amount of viable cells after treating HEK293FT WT and TDP1-deficient (TDP1−/−) cells with increasing concentrations of Tpc for 72 h. […] Next, we studied WT and mutant cells’ live activity after Tpc treatment on the xCELLigence System (ACEA Biosciences, USA) by the impedance-based assay. HEK293FT TDP1−/− cells were more sensitive to Tpc (Figure 2B). After Tpc administration to the cells, an […] of the slope was seen, characterizing the velocity of the cell growth with Tpc as compared to the control both for WT (red columns) and mutant cells (green columns) (Figure S1, Supplementary Materials). […] The sharper decrease of the slope for the mutant cells than for the WT (compare the histogram for the 0 and 0.05 μM Tpc concentration, ~1.5 times for WT cells (red) and ~6 times for TDP1−/−cells (green)) also characterizes the higher sensitivity of the mutant to the TOP1 inhibitor. […] There was a three-fold difference for these IC50 values, which is nearly the same as for the colorimetric assay.
(§2) The cytotoxicity of the compounds was examined against human cell lines HEK293FT (human embryonic kidney), WT and TDP1-deficient (TDP1-/-), HCT116 (human colon cancer), IMR-32 (human neuroblastoma cell line), HeLa (cervical cancer), and Krebs-2 carcinoma ascites using MTT and EZ4U colorimetric tests or an xCELLigence DP Real-Time Cell Analyzer (ACEA Biosciences, San Diego, CA, USA) for HEK293FT in cells exposed to the compounds. The cells were grown in DMEM/F12 or IMDM (for IMR-32 and Krebs-2) medium (Gibco), with 1x GlutaMAX (Gibco), 50 IU/mL penicillin, 50 μg/mL streptomycin (MP Biomedicals, Irvine, CA, USA) and in the presence of 10% fetal bovine serum (Biolot). The cells (~20,000 cells per well) were incubated for 24 h at 37 °C in 5% CO2, and then treated with the tested compounds (the volume of the added reagents was 1/100 of the total volume of the culture medium, the amount of DMSO was 1% of the final volume as indicated). Control cells were grown in the presence of 1% DMSO where indicated. After 72 h of cell incubation, the relative amount of living cells was determined using a colorimetric test of the amount of formazan converted from 3-(4,5-dimethylthiazol-2-yl)-2,5-diphenyl-2H-tetrazolium bromide (MTT test) or EZ4U Cell Proliferation and Cytotoxicity Assay (Biomedica, Austria), as per the manufacturer’s protocols. The real-time detection of the living cells was done by an xCELLigence DP Real-Time Cell Analyzer (ACEA Biosciences). The measurements were carried out in three parallel experiments.

[4] = test system: IMR-32 (human neuroblastoma cell line); assay: Colorimetric cytotoxicity test, IMR-32; type: cell-based; conditions: for dose-dependent action of Tpc in the presence of inhibitor: IMR-32, Figure 4C; for dose-dependent action of inhibitor in the presence of Tpc on cell growth: IMR-32, Tpc 8 nM, Figure 4B
Experimental: as §2

[5] = test system: HCT116 (human colon cancer); assay: Colorimetric cytotoxicity test, HCT116; type: cell-based; conditions: for intrinsic cytotoxicity: HCT116; for dose-dependent action of inhibitor in the presence of Tpc on cell growth: HCT, Tpc 900 nM, Figure 4B
Experimental: as §2

[6] = test system: HeLa (cervical carcinoma); assay: Colorimetric cytotoxicity test, HeLa; type: cell-based, human; conditions: for enhancement of the Tpc cytotoxicity: data not shown
Experimental: as §2

HEK293FT TDP1−/− cells [7] = assay: Colorimetric cytotoxicity test (MTT/EZ4U), HEK293FT TDP1-/-; type: cell-based, human; conditions: for effect of TDP1 inhibitor in conjunction with Tpc on cell growth: Tpc 30 nM; for IC50: Homo sapiens, HEK293FT, 72 h, read-out: Tpc IC50, colorimetric test
Experimental: as §1, §2

Krebs-2 carcinoma cells = assay: Colorimetric cytotoxicity test, Krebs-2; type: cell-based
Experimental: as §2, with “The real-time detection of the living cells was done by an xCELLigence DP Real-Time Cell Analyzer (ACEA Biosciences). The measurements were carried out in three parallel experiments.” left out

HEK293FT TDP1−/− cells [8] = assay: Impedance-based real-time assay (xCELLigence), HEK293FT TDP1-/-; type: cell-based, human
Experimental: as §1, with “colorimetric assay. […]” for “colorimetric assay.”

HEK293FT WT cells [9] = assay: Impedance-based real-time assay (xCELLigence), HEK293FT WT; type: cell-based, human
Experimental: as §1, with “colorimetric assay. […]” for “colorimetric assay.”

TDP1 [10] = test system: TDP1; set-up: method as in PMID 31619021, PMID 30396105, PMID 30142660, PMID 29562592, PMID 27658793; conditions: Figure 1; ref [10]-[13],[16]-[18],[20],[22]; read-out: IC50 of known TDP1 inhibitors; cited from earlier work
[11] = test system: human breast adenocarcinoma cell line MCF-7; set-up: method as in PMID 27658793; conditions: ref [16]; cited from earlier work
Krebs-2 ascites = test system: Krebs-2 ascites; set-up: method as in PMID 31878088; conditions: in vivo tumor model, ref [17]; cited from earlier work
[12] = test system: lung adenocarcinoma cells A549; set-up: method as in PMID 30523770, doi:10.3390/app9132767; conditions: ref [18],[20]; cited from earlier work
[13] = Homo sapiens, in H2O, read-out: Tpc IC50, impedance-based assay

T1 sequence (Q9NUW8 whole entry): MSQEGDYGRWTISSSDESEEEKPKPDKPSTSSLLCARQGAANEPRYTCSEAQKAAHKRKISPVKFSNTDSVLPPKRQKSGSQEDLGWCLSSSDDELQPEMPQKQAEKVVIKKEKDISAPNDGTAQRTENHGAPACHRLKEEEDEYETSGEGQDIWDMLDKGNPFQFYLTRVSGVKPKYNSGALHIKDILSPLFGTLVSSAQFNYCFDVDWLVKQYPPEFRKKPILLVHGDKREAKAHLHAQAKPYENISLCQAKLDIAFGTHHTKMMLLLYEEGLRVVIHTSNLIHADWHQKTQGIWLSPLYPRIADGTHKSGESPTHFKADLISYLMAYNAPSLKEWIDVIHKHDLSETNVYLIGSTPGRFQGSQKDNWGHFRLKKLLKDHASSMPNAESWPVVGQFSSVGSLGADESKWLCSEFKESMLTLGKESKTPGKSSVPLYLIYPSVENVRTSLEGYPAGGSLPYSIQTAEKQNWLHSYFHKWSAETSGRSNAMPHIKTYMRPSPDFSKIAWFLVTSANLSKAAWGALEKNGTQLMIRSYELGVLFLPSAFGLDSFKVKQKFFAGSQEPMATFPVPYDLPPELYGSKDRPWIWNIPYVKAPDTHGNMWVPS

SMILES: COc1cc(C2OC(C)(C)[C@@H]3CCC(C)=C[C@H]23)ccc1O (mixture of isomers) [11a]
- neuroprotective activity (in vivo Parkinson model): potent neuroprotective activity
- activity against TDP1 (in words) (TDP1 [1]): do not exhibit activity
- IC50 (TDP1 [1]): > 20000 nM
- acute toxicity [2]: low acute toxicity

SMILES: CC1=C[C@@H]2[C@@H](c3ccc(Br)s3)OC(C)(C)[C@@H]2CC1 [11h, (1S,3aR,7aS)-3,3,6-trimethyl-1-(5-bromothiophen-2-yl)-1,3,3a,4,5,7a-hexahydroisobenzofuran]
- effect of TDP1 inhibitor in conjunction with Tpc on cell growth (HEK293FT WT cells [3]): cell growth suppression; also recorded: synergistic effect; also recorded: Suppressed cell growth
- intrinsic cytotoxicity ([4]; IMR-32): low
- dose-dependent action of Tpc in the presence of inhibitor [4]: synergistic action
- dose-dependent action of inhibitor in the presence of Tpc on cell growth [4]: suppressed cell growth
- IC50 (TDP1 [1]): 750 ± 70 nM
- intrinsic cytotoxicity [5]: low
- dose-dependent action of Tpc in the presence of inhibitor ([5]; HCT116, Figure 4C): enhanced Tpc’s potency
- dose-dependent action of inhibitor in the presence of Tpc on cell growth [5]: no effect
- intrinsic cytotoxicity [6]: low
- enhancement of the Tpc cytotoxicity [6]: no enhancement
- effect of TDP1 inhibitor in conjunction with Tpc on cell growth (HEK293FT TDP1−/− cells [7]): not found; also recorded: no effect
- intrinsic cytotoxicity (Krebs-2 carcinoma cells): low

SMILES: CC1=CC[C@@H]2C[C@H]1[C@H](c1ccsc1)OC2(C)C [12k, (1R,4R,5R)-2,2,6-trimethyl-4-(thiophen-3-yl)-3-oxabicyclo[3.3.1]non-6-ene]
- effect of TDP1 inhibitor in conjunction with Tpc on cell growth (HEK293FT WT cells [3]): cell growth suppression; also recorded: synergistic effect; also recorded: Suppressed cell growth
- intrinsic cytotoxicity ([4]; IMR-32): low
- dose-dependent action of Tpc in the presence of inhibitor [4]: synergistic action
- dose-dependent action of inhibitor in the presence of Tpc on cell growth [4]: suppressed cell growth
- IC50 (TDP1 [1]): 1200 ± 140 nM
- intrinsic cytotoxicity [5]: low
- dose-dependent action of inhibitor in the presence of Tpc on cell growth [5]: no effect
- intrinsic cytotoxicity [6]: low
- enhancement of the Tpc cytotoxicity [6]: no enhancement
- effect of TDP1 inhibitor in conjunction with Tpc on cell growth (HEK293FT TDP1−/− cells [7]): not found; also recorded: no effect
- intrinsic cytotoxicity (Krebs-2 carcinoma cells): low

SMILES: CC[C@@]1(O)C(=O)OCc2c1cc1n(c2=O)Cc2cc3c(CN(C)C)c(O)ccc3nc2-1 [Tpc, topotecan, reference compound]
- IC50 (HEK293FT WT cells [3]; in DMSO): 200 nM
- IC50 (HEK293FT WT cells [3]; in H2O): 250 nM
- IC50 ([4]; Homo sapiens, IMR-32, read-out: Tpc IC50 (concentration close to IC50)): ~8 nM
- IC50 (HEK293FT TDP1−/− cells [8]; [13]): 20 nM
- decrease of the slope (velocity of cell growth), 0 vs 0.05 μM Tpc (HEK293FT TDP1−/− cells [8]; ~70 h after Tpc treatment): ~ 6 times
- IC50 ([5]; Homo sapiens, HCT-116, read-out: Tpc IC50 (concentration close to IC50)): ~900 nM
- IC50 (HEK293FT WT cells [9]; [13]): 60 nM
- decrease of the slope (velocity of cell growth), 0 vs 0.05 μM Tpc (HEK293FT WT cells [9]; ~70 h after Tpc treatment): ~ 1.5 times
- IC50 (HEK293FT TDP1−/− cells [7]; in DMSO): 30 nM
- IC50 (HEK293FT TDP1−/− cells [7]; in H2O): 150 nM

SMILES: CC1(C)C2CC=C(COc3ccc4c5c(c(=O)oc4c3)CCC5)C1C2 (stereo not drawn) [compound 4]
- IC50 (TDP1 [10]): 680 nM
- reduction of the CC50 of camptothecin [11]: eight-fold

SMILES: CC(C)=CCC/C(C)=C/COc1ccc2c(-c3ccc(F)cc3)cc(=O)oc2c1 [compound 5]
- effect on the antitumor effect of Tpc (Krebs-2 ascites): significant increase in the antitumor effect of Tpc
- IC50 (TDP1 [10]): 620 nM

SMILES: CC(C)CCCC(C)CCOC(=O)C12CC3CC(CC(C3)C1)C2 (stereo not drawn) [compound 6]
- IC50 (TDP1 [10]): 920 nM
- synergism in combination with Tpc [12]: strong synergism

SMILES: CC(C)CCCC(C)CCNC(=S)C12CC3CC(CC(C3)C1)C2 (stereo not drawn) [compound 7]
- IC50 (TDP1 [10]): 3300 nM
- synergism in combination with Tpc [12]: strong synergism

— PMC7436013, “Design, Synthesis, and Biological Investigation of Novel Classes of 3-Carene-Derived Potent Inhibitors of TDP1” (Molecules, 2020)
